In US8148391B2 (Cephalon, Inc., priority 2006, dated 2012):
Read-outs that look alike come from different tables or passages of the source. One block for each compound: values may come before it.

Columns and labels:
[1] = target: T1, baculovirus-expressed ALK (Homo sapiens, UniProt Q9UM73); assay: ALK Kinase Assay (ELISA-type, time-resolved fluorescence); assay type: biochemical
T1 construct: host or cells: baculovirus expression system
Method in brief: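 Substrate coating: phospholipase C-γ, 10 μg/mL in TBS. Kinase step: 30 ng/ml ALK, 15 min, 37° C. Detection and analysis: Eu-N1 PT66 antibody, with IC50 fitted as a sigmoidal variable-slope dose-response curve.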

[2] = target: T2, c-Met (cytoplasmic domain) (Homo sapiens, UniProt P08581); assay: c-Met Kinase Assay (same methods as for ALK, with modifications); assay type: biochemical
T2 construct: 10 ng/mL c-Met (cytoplasmic domain, Invitrogen Corporation #PV3143); purchased Invitrogen Corporation PV3143
Method in brief: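 Wells were coated with 10 μg/mL phospholipase C-γ substrate in TBS, and reactions were started with 10 ng/mL c-Met cytoplasmic domain and run at 37° C for 15 minutes. Phosphorylated product was detected with Eu-N1-labeled PT66 antibody. IC50 values came from sigmoidal variable-slope fits of percent inhibition versus log compound concentration.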

[3] = 1 μM ATP (Km level), read-out: ALK Activity (ALK Kinase Inhibition, IC50)
[4] = 1 μM ATP (Km level), read-out: cMet Activity (c-Met Kinase Inhibition, IC50)
[5] = ALK kinase inhibition, 1 μM ATP, read-out: ALK Activity
[6] = c-Met kinase inhibition, 1 μM ATP, read-out: cMet Activity
[7] = 1 μM ATP (Km level), 30 ng/ml ALK, 37° C., 15 minutes, read-out: ALK Activity (ALK kinase inhibition, IC50 class)
[8] = 1 μM ATP (Km level), 10 ng/mL c-Met, read-out: cMet Activity (c-Met kinase inhibition, IC50 class)
[9] = ALK kinase inhibition, 1 μM ATP (Km level), read-out: ALK Activity
[10] = c-Met kinase inhibition, 1 μM ATP (Km level), read-out: cMet Activity

T2 sequence (P08581 956-1390 limits assumed): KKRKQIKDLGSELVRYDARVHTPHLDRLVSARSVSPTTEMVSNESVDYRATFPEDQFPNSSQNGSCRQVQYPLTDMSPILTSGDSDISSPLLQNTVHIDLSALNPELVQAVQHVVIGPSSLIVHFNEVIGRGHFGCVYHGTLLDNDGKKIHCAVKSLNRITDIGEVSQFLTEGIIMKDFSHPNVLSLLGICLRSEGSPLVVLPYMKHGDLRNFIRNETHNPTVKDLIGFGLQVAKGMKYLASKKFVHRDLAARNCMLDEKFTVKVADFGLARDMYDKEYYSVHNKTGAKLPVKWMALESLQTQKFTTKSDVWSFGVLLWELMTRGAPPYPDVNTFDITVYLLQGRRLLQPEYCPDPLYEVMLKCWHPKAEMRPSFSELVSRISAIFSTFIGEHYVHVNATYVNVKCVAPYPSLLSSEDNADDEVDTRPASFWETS
T1 sequence (Q9UM73 19-1620): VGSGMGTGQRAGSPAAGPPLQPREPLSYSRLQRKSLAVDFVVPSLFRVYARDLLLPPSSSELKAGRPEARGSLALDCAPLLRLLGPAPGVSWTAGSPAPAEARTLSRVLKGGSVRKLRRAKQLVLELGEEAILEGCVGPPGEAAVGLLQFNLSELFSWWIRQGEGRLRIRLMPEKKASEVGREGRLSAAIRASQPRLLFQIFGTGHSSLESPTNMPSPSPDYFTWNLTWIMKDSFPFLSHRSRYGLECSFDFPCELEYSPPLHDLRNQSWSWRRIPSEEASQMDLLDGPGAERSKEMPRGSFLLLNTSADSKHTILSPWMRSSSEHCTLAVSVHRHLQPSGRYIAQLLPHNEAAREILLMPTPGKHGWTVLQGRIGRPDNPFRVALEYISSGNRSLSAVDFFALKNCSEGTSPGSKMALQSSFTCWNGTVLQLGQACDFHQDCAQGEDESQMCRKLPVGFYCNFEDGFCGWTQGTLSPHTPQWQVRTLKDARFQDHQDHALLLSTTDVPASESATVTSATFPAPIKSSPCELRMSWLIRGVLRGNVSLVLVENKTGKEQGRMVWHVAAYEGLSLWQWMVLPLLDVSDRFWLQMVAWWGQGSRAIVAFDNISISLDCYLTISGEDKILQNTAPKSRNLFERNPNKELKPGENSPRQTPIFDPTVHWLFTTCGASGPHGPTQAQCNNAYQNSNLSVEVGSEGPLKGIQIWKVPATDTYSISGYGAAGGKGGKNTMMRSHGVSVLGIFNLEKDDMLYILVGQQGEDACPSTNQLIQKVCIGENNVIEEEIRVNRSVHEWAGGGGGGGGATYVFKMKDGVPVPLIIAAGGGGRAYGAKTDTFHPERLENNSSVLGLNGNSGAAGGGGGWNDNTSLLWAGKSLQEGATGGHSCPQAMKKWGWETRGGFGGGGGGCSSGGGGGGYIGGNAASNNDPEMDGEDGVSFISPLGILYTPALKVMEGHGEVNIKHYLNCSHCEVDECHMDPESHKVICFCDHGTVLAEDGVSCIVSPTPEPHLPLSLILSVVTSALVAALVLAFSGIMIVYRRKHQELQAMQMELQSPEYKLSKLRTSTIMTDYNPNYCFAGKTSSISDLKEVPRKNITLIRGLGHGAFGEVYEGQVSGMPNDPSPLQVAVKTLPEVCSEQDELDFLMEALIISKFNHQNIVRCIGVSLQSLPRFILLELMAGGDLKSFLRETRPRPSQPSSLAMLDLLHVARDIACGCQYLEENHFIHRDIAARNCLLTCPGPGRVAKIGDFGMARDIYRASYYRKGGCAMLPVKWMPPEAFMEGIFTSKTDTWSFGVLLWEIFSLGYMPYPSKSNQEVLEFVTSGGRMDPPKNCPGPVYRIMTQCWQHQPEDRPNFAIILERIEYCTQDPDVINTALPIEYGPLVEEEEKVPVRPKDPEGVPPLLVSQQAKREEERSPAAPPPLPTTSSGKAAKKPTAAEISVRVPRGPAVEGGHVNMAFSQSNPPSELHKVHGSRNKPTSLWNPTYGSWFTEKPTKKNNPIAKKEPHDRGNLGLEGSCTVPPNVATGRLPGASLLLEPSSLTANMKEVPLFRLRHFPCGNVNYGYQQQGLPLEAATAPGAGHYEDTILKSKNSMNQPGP

IC50 [1, 3]: < 100 nM | IC50 [2, 4]: 1000 to 10000 nM
SMILES: CCN1CC2CC1CN2c1ccc(Nc2nc(Nc3cc4c(cc3OC)CCN(CC(=O)N(C)C)CC4)ncc2Cl)c(OC)c1 (stereo not shown) [Example 795, 2-(7-{5-Chloro-4-[4-(5-ethyl-2,5-diaza-bicyclo[2.2.1]hept-2-yl)-2-methoxy-phenylamino]-pyrimidin-2-ylamino}-8-methoxy-1,2,4,5-tetrahydro-benzo[d]azepin-3-yl)-N,N-dimethyl-acetamide]

IC50 [1, 3]: < 100 nM | IC50 [2, 4]: < 100 nM
SMILES: CNC(=O)c1ccccc1Nc1nc(Nc2ccc3c(c2)CN(CCO)CCS3)ncc1Cl [Example 528, 2-{5-Chloro-2-[8-(hydroxyl-ethyl)-6,7,8,9-tetrahydro-5-thia-8-aza-benzoylcyclohepten-2-ylamino]-pyrimidin-4-ylamino}-N-methyl-benzamide]

IC50 [1, 3]: < 100 nM | IC50 [2, 4]: 100 to 1000 nM
SMILES: CN1CCN(C2CCN(C3CCc4ccc(Nc5ncc(Cl)c(N[C@H]6[C@@H](C(N)=O)[C@@H]7C=C[C@H]6C7)n5)cc4CC3)CC2)CC1 (stereo partly drawn) [Example 887, (1S,2S,3R,4R)-3-(5-Chloro-2-{7-[4-(4-methyl-piperazin-1-yl)-piperidin-1-yl]-6,7,8,9-tetrahydro-5H-benzocyclohepten-2-ylamino}-pyrimidin-4-ylamino)-bicyclo[2.2.1]hept-5-ene-2-carboxylic acid amide]

IC50 [1, 5]: < 100 nM | IC50 [2, 6]: 100 to 1000 nM
SMILES: CCN1C(=O)CCC(C)(C)c2ccc(Nc3ncc(Cl)c(Nc4ccccc4OCC#N)n3)cc21 [Example 1580, {2-[5-Chloro-2-(1-ethyl-5,5-dimethyl-2-oxo-2,3,4,5-tetrahydro-1H-benzo[b]azepin-8-ylamino)-pyrimidin-4-ylamino]-phenoxy}-acetonitrile]

IC50 [1, 3]: < 100 nM | IC50 [2, 4]: 1000 to 10000 nM
SMILES: CCN1CCN(CC)c2cc(Nc3ncc(Cl)c(N[C@H]4[C@@H](C(N)=O)[C@@H]5C=C[C@H]4C5)n3)ccc2C1 [Example 720, (1S,2S,3R,4R)-3 [5-Chloro-2-(1,4-diethyl-2,3,4,5-tetrahydro-1H-1,4-benzodiazepin-8-ylamino)-pyrimidin-4ylamino]-bicyclo[2.2.1]hept-5-ene-2-carboxylic acid amide]

IC50 [1, 7]: 100 to 1000 nM | IC50 [2, 8]: > 10000 nM
SMILES: CCN1C(=O)CCCc2c1ccc(Nc1ncc(Cl)c(Nc3ccc(N(C)C)cc3OC)n1)c2OC [Example 1339, 7-[5-Chloro-4-(4-dimethylamino-2-methoxy-phenylamino)-pyrimidin-2-ylamino]-1-ethyl-6-methoxy-1,3,4,5-tetrahydro-benzo[b]azepin-2-one]

SMILES: CNS(=O)(=O)c1ccccc1Nc1nc(Nc2ccc3c(c2)C2CCC3CN(C(=O)C(F)(F)F)C2)ncc1Cl (stereo not shown) [Example 284, 2-{5-Chloro-2-[10-(2,2,2-trifluoro-acetyl)-10-aza-tricyclo[6.3.2.0*2,7*]trideca-2,4,6-trien-4-ylamino]-pyrimidin-4-ylamino}-N-methyl-benzenesulfonamide]
IC50 [1, 9]: < 100 nM | IC50 [2, 10]: 100 to 1000 nM

IC50 [1, 5]: 100 to 1000 nM | IC50 [2, 6]: 100 to 1000 nM
SMILES: CNC(=O)c1cccc(F)c1Nc1nc(Nc2ccc3c(c2)N(C(=O)CN2CCCC2)CCCC3(C)C)ncc1Cl [Example 1603, 2-{5-Chloro-2-[5,5-dimethyl-1-(2-pyrrolidin-1-yl-acetyl)-2,3,4,5-tetrahydro-1H-benzo[b]azepin-8-ylamino]-pyrimidin-4-ylamino}-3-fluoro-N-methyl-benzamide]

IC50 [1, 9]: 1000 to 10000 nM | IC50 [2, 10]: > 10000 nM
SMILES: COCCN1CCc2ccc(OC)c(Nc3ncc(Cl)c(N[C@@H]4CCCC[C@H]4NS(C)(=O)=O)n3)c2CC1 [Example 244, N-((1R,2R)-2-{5-Chloro-2-[7-methoxy-3-(2-methoxy-ethyl)-2,3,4,5-tetrahydro-1H-benzo[d]azepin-6-ylamino]-pyrimidin-4-ylamino}-cyclohexyl)-methanesulfonamide]

IC50 [1, 7]: 100 to 1000 nM | IC50 [2, 8]: 1000 to 10000 nM
SMILES: COc1cc2c(cc1Nc1ncc(Cl)c(Nc3cc(C(N)=O)ccc3OC)n1)CCN(CC(=O)N(C)C)CC2 [Example 1136, 3-[5-Chloro-2-(3-dimethylcarbamoylmethyl-8-methoxy-2,3,4,5-tetrahydro-1H-benzo[d]azepin-7-ylamino)-pyrimidin-4-ylamino]-4-methoxy-benzamide]

SMILES: CNC(=O)c1ccccc1Nc1nc(Nc2ccc3c(c2)C2CCC(C3)N2CCOC)ncc1Cl (stereo not shown) [Example 68, 2-{5-Chloro-2-[12-(2-methoxy-ethyl)-12-aza-tricyclo[7.2.1.0*2,7*]dodeca-2(7),3,5-trien-4-ylamino]-pyrimidin-4-ylamino}-N-methyl-benzamide]
IC50 [1, 9]: < 100 nM | IC50 [2, 10]: < 100 nM

SMILES: C#CCN1CC2CCC(C1)c1cc(Nc3ncc(Cl)c(Nc4ccccc4S(=O)(=O)N(C)CC#C)n3)ccc12 (stereo not shown) [Example 288, 2-[5-Chloro-2-(10-prop-2-ynyl-10-aza-tricyclo[6.3.2.0*2,7*]trideca-2,4,6-trien-4-ylamino)-pyrimidin-4-ylamino]-N-methyl-N-prop-2-ynyl-benzenesulfonamide]
IC50 [1, 9]: < 100 nM | IC50 [2, 10]: 100 to 1000 nM

IC50 [1, 5]: < 100 nM | IC50 [2, 6]: < 100 nM
SMILES: CNC(=O)c1ccccc1Nc1nc(Nc2ccc3c(c2)CCOC(=O)N3C)ncc1Cl [Example 1741, 2-[5-Chloro-2-(5-methyl-6-oxo-5,6,8,9-tetrahydro-7-oxa-5-aza-benzocyclohepten-2-ylamino)-pyrimidin-4-ylamino]-N-methylbenzamide]

IC50 [1, 3]: < 100 nM | IC50 [2, 4]: < 100 nM
SMILES: CCN1CCN(CC)c2cc(Nc3ncc(Cl)c(Nc4ccccc4S(=O)(=O)N(C)C)n3)ccc2C1 [Example 730, 2-[5-Chloro-2-(1,4-diethyl-2,3,4,5-tetrahydro-1H-benzo[e][1,4]diazepin-8-ylamino)-pyrimidin-4-ylamino]-N,N-dimethyl-benzenesulfonamide]

IC50 [1, 7]: 100 to 1000 nM | IC50 [2, 8]: 1000 to 10000 nM
SMILES: COCCN1CCc2ccc(Nc3ncc(Cl)c(N[C@H]4CC[C@@H](NS(C)(=O)=O)CC4)n3)cc2CC1 [Example 1381, cis-N-(4-{5-Chloro-2-[3-(2-methoxy-ethyl)-2,3,4,5-tetrahydro-1H-benzo[d]azepin-7-ylamino]-pyrimidin-4-ylamino}-cyclohexyl)-methanesulfonamide]

IC50 [1, 3]: < 100 nM | IC50 [2, 4]: < 100 nM
SMILES: CNC(=O)c1ccccc1Nc1nc(Nc2ccc3c(c2)OCCNC3=O)ncc1Cl [Example 512, 2-[5-Chloro-2-(5-oxo-2,3,4,5-tetrahydro-benzo[f][1,4]oxazepin-8-ylamino)-pyrimidin-4-ylamino]-N-methyl-benzamide]

IC50 [1, 7]: < 100 nM | IC50 [2, 8]: 100 to 1000 nM
SMILES: CNC(=O)CN1CCc2ccc(Nc3ncc(Cl)c(N[C@@H]4CCCC[C@H]4NS(C)(=O)=O)n3)cc2CC1 [Example 1374, 2-{7-[5-Chloro-4-((1R,2R)-2-methanesulfonylamino-cyclohexylamino)-pyrimidin-2-ylamino]-1,2,4,5-tetrahydro-benzo[d]azepin-3-yl}-N-methyl-acetamide]

IC50 [1, 9]: < 100 nM | IC50 [2, 10]: 100 to 1000 nM
SMILES: COCCN1CCc2ccc(Nc3ncc(Cl)c(Nc4ccc(N5CCOCC5)cc4OC)n3)cc2CC1 [Example 309, 5-Chloro-N*2*-[3-(2-methoxy-ethyl)-2,3,4,5-tetrahydro-1H-benzo[d]azepin-7-yl]-N*4*-(2-methoxy-4-morpholin-4-yl-phenyl)-pyrimidine-2,4-diamine]

IC50 [1, 7]: < 100 nM | IC50 [2, 8]: > 10000 nM
SMILES: COc1cc2c(cc1Nc1ncc(Cl)c(Nc3ccccc3-n3cccn3)n1)CCC(NCC(F)F)CC2 (stereo not shown) [Example 1059, 5-Chloro-N*2*-[7-(2,2-difluoro-ethylamino)-3-methoxy-6,7,8,9-tetrahydro-5H-benzocyclohepten-2-yl]-N*4*-(2-pyrazol-1-yl-phenyl)-pyrimidine-2,4-diamine]

IC50 [1, 7]: 100 to 1000 nM | IC50 [2, 8]: 100 to 1000 nM
SMILES: CCOC(=O)N1CCCOc2cc(Nc3ncc(Cl)c(Nc4ccsc4C(=O)NC)n3)ccc21 [Example 1418, 3-[5-Chloro-4-(2-methylcarbamoyl-thiophen-3-ylamino)-pyrimidin-2-ylamino]-7,8-dihydro-6H-5-oxa-9-aza-benzocycloheptene-9-carboxylic acid ethyl ester]

IC50 [1, 3]: < 100 nM | IC50 [2, 4]: 1000 to 10000 nM
SMILES: CC1(C)CCC(=O)Nc2ccc(Nc3ncc(Cl)c(Nc4ccccc4-c4cnccn4)n3)cc21 [Example 975]

IC50 [1, 5]: < 100 nM | IC50 [2, 6]: > 10000 nM
SMILES: COCCN1CC(=O)Nc2cc(Nc3ncc(Cl)c(N[C@@H]4CCCC[C@H]4NS(C)(=O)=O)n3)c(OC)cc2C1 [Example 1664, N-(1R,2R)-(2-{5-Chloro-2-[7-methoxy-4-(2-methoxy-ethyl)-2-oxo-2,3,4,5-tetrahydro-1H-benzo[e][1,4]diazepin-8-ylamino]-pyrimidin-4-ylamino}-cyclohexyl)-methanesulfonamide]

IC50 [1, 3]: < 100 nM | IC50 [2, 4]: > 10000 nM
SMILES: COc1cc2c(cc1Nc1ncc(Cl)c(Nc3ccc(N4CCN(C)CC4)c(C)c3)n1)CCN(CC(=O)N(C)C)CC2 [Example 792, 2-(7-{5-Chloro-4-[3-methyl-4-(4-methyl-piperazin-1-yl)-phenylamino]-pyrimidin-2-ylamino}-8-methoxy-1,2,4,5-tetrahydro-benzo[d]azepin-3-yl)-N,N-dimethyl-acetamide]
